Consider 4 compounds from US20210161135A1, “WEED CONTROL FROM APPLICATIONS OF PYRIDINE CARBOXYLIC ACID HERBICIDES AND 4-HYDROXYPHENYL-PYRUVATE DIOXYGENASE (HPPD) INHIBITORS” (Dow AgroSciences LLC, priority 2018, published 2021).

Holding throughout (assay): Postemergence herbicidal activity, greenhouse, visual injury after 20-22 d
Common to all, as to type: in vivo

In assay [1] the test system is kochia (Kochia scoparia, KCHSC). The procedure:
(§1) Seeds of the desired test plant species were planted in Sun Gro MetroMix® 306 planting mixture, which typically has a pH of 6.0 to 6.8 and an organic matter content of about 30 percent, in plastic pots with a surface area of 103.2 square centimeters (cm^2). When required to ensure good germination and healthy plants, a fungicide treatment and/or other chemical or physical treatment was applied. The plants were grown for 7-36 days (d) in a greenhouse with an approximate 14-hour (h) photoperiod which was maintained at about 23° C. during the day and 22° C. during the night. Nutrients and water were added on a regular basis and supplemental lighting was provided with overhead metal halide 1000-Watt lamps as necessary. The plants were employed for testing when they reached the second or third true leaf stage.
(§2) An emulsifiable concentrate (EC) formulation containing Compound 1 at 100 gai/L was prepared by combining Compound 1 with 1-butyl-2-pyrrolidinone (Tamisolve NxG; 360.5 g/L), benzyl acetate (544.6 g/L) and Agnique MBL 520L surfactant (52.9 g/L). […] The concentrated stock solutions were diluted with an aqueous mixture of 1.5% v/v of Agri-dex crop oil concentrate to provide the appropriate application rates. Compound requirements are based upon a 12 milliliter (mL) application volume at a rate of 187 liters per hectare (L/ha). Spray solutions of the experimental compound mixtures were prepared by adding the stock solutions to the appropriate amount of dilution solution to form a 12 mL spray solution in two-way combinations. Formulated compounds were applied to the plant material with an overhead Mandel track sprayer equipped with 8002E nozzles calibrated to deliver 187 L/ha over an application area of 0.503 square meters (m^2) at a spray height of […] above average plant canopy. Control plants were sprayed in the same manner with the solvent blank. Application rates for component (a) are in g ai/ha, and application rates for component (b) are in g ai/ha.
(§3) The treated plants and control plants were placed in a greenhouse as described above and watered by sub-irrigation to prevent wash-off of the test compounds. After 20-22 d, the condition of the test plants as compared with that of the control plants was determined visually and scored on a scale of 0 to 100 percent where 0 corresponds to no injury and 100 corresponds to complete kill. […] The Colby method was used to determine the herbicidal effects expected from the mixtures.

The subject of assay [2] is wild buckwheat (Polygonum convolvulus, POLCO). The method, then:
as §1, §2, §3

The subject of assay [3] is thistle (Cirsium arvense CIRAR). The procedure:
as §1, §2, §3

For assay [4], the system named is common lambsquarters (Chenopodium album L., CHEAL). The procedure: as §1, §2, §3
The test system of assay [5] is velvetleaf (Abutilon theophrasti, ABUTH). The method, then: as §1, §2, §3
In assay [6] the test system is spring rape (Brassica napus, BRSNN). The method, then:
as §1, §2, §3

For assay [7], the system named is poinsettia (Euphorbia heterophylla, EPHHL). The procedure: as §1, §2, §3
Assay [8] deals with wild pansy (Viola tricolor, VIOTR). The procedure:
as §1, §2, §3

Assay [9] deals with giant foxtail (Setaria faberi, SETFA). The procedure: as §1, §2, §3
Another assay relates to maize (Zea mays, ZEAMX). The note with it: two trials. The method, then:
as §1, §2, §3

Assay [10] concerns pigweed (Amaranthus retroflexus, AMARE). The note with it: two trials. The method, then:
as §1, §2, §3

Assay [11] has as its system winter rape (Brassica napus, BRSNW). The note with it: two trials. The method, then:
as §1, §2, §3

For assay [12], the system named is common chickweed (Stellaria media, STEME). The note with it: two trials. The procedure:
as §1, §2, §3

Assay [13] concerns grain sorghum (Sorghum vulgare, SORVU). The note with it: two trials. The method, then:
as §1, §2, §3

Assay [14] deals with soybean (Glycine max, GLXMA). The note with it: two trials. The method, then: as §1, §2, §3
Assay [15] concerns barnyardgrass (Echinochloa crus-galli, ECHCG). The note with it: two trials. The method, then: as §1, §2, §3
Assay [16] has as its system large crabgrass (Digitaria sanguinalis, DIGSA). The note with it: HPPD inhibitor 35 g ai/ha alone, two trials. The procedure: as §1, §2, §3
Assay [17] concerns sunflower (Helianthus annuus, HELAN). The note with it: two trials. The method, then:
as §1, §2, §3

In assay [18] the test system is ivyleaf morningglory (Ipomoea hederacea, IPOHE). The note with it: two trials. The procedure:
as §1, §2, §3

Assay [19] concerns rice (Oryza sativa, ORYSA). The note with it: Sulcotrione 75 g ai/ha alone, two trials. The procedure: as §1, §2, §3
Assay [20] has as its system winter wheat (Triticum aestivum, TRZAW). The note with it: Sulcotrione 75 g ai/ha alone, two trials. The procedure:
as §1, §2, §3

Setting [21] is: HPPD inhibitor 35 g ai/ha alone.
Where [22] appears, read: HPPD inhibitor 35 g ai/ha alone, two trials.
Where [23] appears, read: Sulcotrione 75 g ai/ha alone, two trials.

Consider `CS(=O)(=O)c1ccc(C(=O)C2=C(Sc3ccccc3)C3CCC(C3)C2=O)c(Cl)c1` (centres unmarked) [Benzobicyclon, 3-[2-chloro-4-(methylsulfonyl)benzoyl]-4-(phenylthio)bicyclo[3.2.1]oct-3-en-2-one], for which the “Effect (% visual injury), Obs” value in assay [1] (Benzobicyclon 50 g ai/ha alone) is on record as 10%; in [2] (Benzobicyclon 50 g ai/ha alone) it was 0%; in assay [3] (Benzobicyclon 50 g ai/ha alone) it was 20%; in assay [4] (Benzobicyclon 50 g ai/ha alone), 100%; in assay [5] (Benzobicyclon 50 g ai/ha alone) it was 25%; in assay [6] (Benzobicyclon 50 g ai/ha alone), 0%. In addition, the “Effect (% visual injury), Obs” value amounted to 5% in assay [7] (Benzobicyclon 50 g ai/ha alone), 10% in assay [8] (Benzobicyclon 50 g ai/ha alone) and 0% in assay [9] (Benzobicyclon 50 g ai/ha alone).

Take `CS(=O)(=O)c1ccc(C(=O)C2C(=O)CCCC2=O)c([N+](=O)[O-])c1` [Mesotrione, 2-[4-(methylsulfonyl)-2-nitrobenzoyl]-1,3-cyclohexanedione]: the “Effect (% visual injury), Obs” value is listed as 0% in the assay on maize (Zea mays, ZEAMX) (setting [21]); 70% in assay [1] (setting [22]); 48% in assay [2] (setting [22]); 30% in assay [10] (setting [21]); 100% in assay [3] (setting [22]); 100% in assay [4] (setting [22]). For the same compound, the “Effect (% visual injury), Obs” value was 88% in assay [5] (setting [22]); 60% in assay [11] (setting [21]); 60% in assay [12] (setting [21]); 100% in assay [6] (setting [22]); 20% in assay [7] (setting [22]); 0% in assay [13] (setting [21]). Further, the “Effect (% visual injury), Obs” value in assay [14] (setting [21]) stood at 70%; in assay [15] (setting [21]) it was 10%; in assay [16], 20%; in assay [17] (setting [21]), 93%; in assay [8] (setting [22]) it was 58%; in assay [18] (setting [21]), 70%. For the same compound, the “Effect (% visual injury), Obs” value in [9] (setting [22]) is listed as 0%.

Regarding `Cc1ccc(S(=O)(=O)Oc2c(C(=O)c3ccc(Cl)cc3Cl)c(C)nn2C)cc1` [Pyrazolynate, (2,4-dichlorophenyl)[1,3-dimethyl-5-[[(4-methylphenyl)sulfonyl]oxy]-1H-pyrazol-4-yl]methanone], the “Effect (% visual injury), Obs” value in assay [1] (Pyrazolynate 225 g ai/ha alone) was 0%; in assay [2] (Pyrazolynate 225 g ai/ha alone), 0%; in assay [3] (Pyrazolynate 225 g ai/ha alone) it was 0%; in [4] (Pyrazolynate 225 g ai/ha alone) it was 10%; in assay [5] (Pyrazolynate 225 g ai/ha alone) it was 0%; in assay [6] (Pyrazolynate 225 g ai/ha alone), 0%. In addition, the “Effect (% visual injury), Obs” value in [7] (Pyrazolynate 225 g ai/ha alone) and in assay [8] (Pyrazolynate 225 g ai/ha alone) was 0% throughout.

Take `CS(=O)(=O)c1ccc(C(=O)C2C(=O)CCCC2=O)c(Cl)c1` [Sulcotrione, 2-[2-chloro-4-(methylsulfonyl)benzoyl]-1,3-cyclohexanedione]: the “Effect (% visual injury), Obs” value in assay [19] is 5%; with maize (Zea mays, ZEAMX) (Sulcotrione 75 g ai/ha alone), 0%; in assay [1] (setting [23]), 45%; in assay [2] (setting [23]), 48%; in [10] (Sulcotrione 75 g ai/ha alone), 40%; in assay [3] (setting [23]), 70%. In addition, the “Effect (% visual injury), Obs” value in [4] (setting [23]) is listed as 100%; in [5] (setting [23]) it was 50%; in [11] (Sulcotrione 75 g ai/ha alone), 70%; in assay [12] (Sulcotrione 75 g ai/ha alone), 85%; in assay [6] (setting [23]) it was 95%; in [7] (setting [23]), 60%. Moreover, the “Effect (% visual injury), Obs” value in assay [13] (Sulcotrione 75 g ai/ha alone) is 0%; in assay [14] (Sulcotrione 75 g ai/ha alone), 65%; in [15] (Sulcotrione 75 g ai/ha alone), 40%; in [20], 0%; in assay [17] (Sulcotrione 75 g ai/ha alone), 80%; in assay [8] (setting [23]), 73%. The “Effect (% visual injury), Obs” value is 65% in [18] (Sulcotrione 75 g ai/ha alone) and 0% in [9] (setting [23]).
